Measurements as given in paper PMC8996404, “The pharmacokinetics of buserelin after intramuscular administration in pigs and cows” (BMC Veterinary Research, 2022).
Read-outs that look alike come from different tables or passages of the source.

What was measured:
[1] = Plasma pharmacokinetics of buserelin after i.m. administration in pigs; assay type: in vivo; conditions: for MRT: pig, 1 mg per pig
Experimental: (§1) The UPLC-MS/MS system (Waters Acquity UPLC and Waters Quattro Premier, Waters Co., USA) and the chromatographic column (Agilent Poroshell 120 EC-C18, 4.6 × 100 mm, 2.7 µm) were used in this study. The separation was performed with 0.1% formic acid in water (mobile phase solvent A) and 0.1% formic acid in acetonitrile (solvent B) with a flow rate of 0.6 mL/min. The gradient elution program was optimized as follow: 75% A (0–0.5 min), 10% A (5–7 min) 75% A (7.1–10 min). The sample was injected at a volume of 5 µL at 30℃. The mass spectrometer was operated in the positive ion detection mode with the capillary voltage set at 5.5 kV and the source temperature was 550 ℃. Others parameters were as follows: nebulizer gas pressure was 55 psi, ion source gas pressure was 60 psi, curtain gas pressure was 30 psi, declustering potential was 68 V, entrance potential was 10 V, and collision cell exit potential was 13 V.
(§2) Five healthy adult female Danish Landrance × Yorkshire × Duroc pigs (100–120 days, 50–60 kg, Ningbo Kuangdai Husbandry Co., Ltd. Ningbo China) and five healthy adult female Holstein cows (1.5–2 years, 440–500 kg, Ningbo Milk Group Co., Ltd. Ningbo China) were randomly selected to use in this research. All animals were examined by a local veterinarian with regard to physical, hematologic, and biochemical conditions during the two-week adaptation period. The two protocols used in this study were reviewed and approved by the Institutional Animal Care and Use Committee of China Agricultural University (pigs: 11605–20-D-007; cows: 11605–20-B-003). Buserelin injection solution (0.5 mg/mL, 10 mL) was acquired from Ningbo Sansheng Pharmaceutical Company. In order to avoid introducing bias results from feeding, each animal in the study fasted for approximately 12 h. Each pig received 1 mg buserelin injection solution (about 0.018 mg/kg), and each cow received 3 mg (about 0.0064 mg/kg). During the entire experiment, water was available ad libitum. Adverse symptoms were recorded and evaluated. Blood samples of 5 mL were collected into heparinized tube (pigs: anterior vena cava; cows: vena jugularis interna) at 0, 0.083, 0.167, 0.333, 0.5, 0.75, 1, 1.5, 2, 3, 4, 5, 6, 7, and 8 h after i.m. administration. The blood samples were centrifuged for 5 min at 2775 × g. Plasma samples were stored in -20 ℃ until analysis (within 21 days of collection).
(§3) Frozen plasma samples were thawed and vortexed, and 500 µL plasma and 1 mL 0.1% formic acid in acetonitrile were mixed together. After 10 min ultrasonic treatment, the samples were centrifuged for 10 min at 11,100 × g. The upper layer was collected and the remainder was treated twice. These two supernatants were added together, the samples were evaporated via nitrogen gas at 40 ℃, and redissolved in 2.5 mL 0.1% formic acid in acetonitrile-0.1% formic acid in water (1:3 v/v). After filtered through a 0.22 µm microbore cellulose membrane, the samples were collected and bottled to UPLC-MS/MS system for analysis.
(§4) Plasma concentrations of buserelin were analyzed using the established method, and the pharmacokinetic parameters were calculated via a non-compartmental analysis model 200 in WinNonlin software (WinNolin 8.1.0 Certara, Pharsight, Mountain View, CA, USA) and expressed in mean ± standard deviation (SD), and no statistical tests were applied.

[2] = Plasma pharmacokinetics of buserelin after i.m. administration in cows; assay type: in vivo; conditions: for MRT: cow, 3 mg per cow
Experimental: as §1, §2, §3, §4

[3] = dogs, cited from earlier work
Excerpt: (§5) High plasma concentration, high bonding rate, means more drugs cannot across the membrane and barrier. Therefore, binding changes can affect the distribution of drugs. Because protein binding of buserelin is about 15% [2], it is proportional to the body volume and body weight and animals using in this study had larger volume of body water or extracellular water. It has been repo ...

[4] = pigs, cited from earlier work
Experimental: as §5, with “The Vd was 80.49 ± 43.88 L for pigs and 839.88 ± 174.77 L for cows, which is larger than pigs (304 ± 112 mL/kg) at a single dose 1 mg i.v., and dogs (50.1 ± 2.4 mL/kg) at a single dose 5 mg i.v.. High” for “High”

[5] = test system: pyroglutamyl-amino-peptidase; conditions: enzyme can be isolated from mammalian liver ref 2; cited from earlier work
Experimental: as §5, with “The Vd was 80.49 ± 43.88 L for pigs and 839.88 ± 174.77 L for cows, which is larger than pigs (304 ± 112 mL/kg) at a single dose 1 mg i.v., and dogs (50.1 ± 2.4 mL/kg) at a single dose 5 mg i.v.. High” for “High”

[6] = female, Danish Landrance × Yorkshire × Duroc, im, single i.m. dose 1 mg per pig, plasma, mean ± SD, n = 5
[7] = single i.m. dose 1 mg per pig, plasma, mean ± SD, n = 5
[8] = female, Holstein, im, single i.m. dose 3 mg per cow, plasma, mean ± SD, n = 5
[9] = single i.m. dose 3 mg per cow, plasma, mean ± SD, n = 5

Structure (SMILES): CCNC(=O)[C@@H]1CCCN1C(=O)[C@H](CCCNC(=N)N)NC(=O)[C@H](CC(C)C)NC(=O)[C@@H](COC(C)(C)C)NC(=O)[C@H](Cc1ccc(O)cc1)NC(=O)[C@H](CO)NC(=O)[C@H](Cc1c[nH]c2ccccc12)NC(=O)[C@H](Cc1cnc[nH]1)NC(=O)[C@@H]1CCC(=O)N1 [buserelin, Buserelin]
- tmax ([1]; female, Danish Landrance × Yorkshire × Duroc, im, single i.m. dose 1 mg per pig (about 0.018 mg/kg), plasma, UPLC-MS/MS, non-compartmental, mean ± SD, n = 5): 0.57 ± 0.18 h
- AUC(0-t) ([1]; female, Danish Landrance × Yorkshire × Duroc, im, single i.m. dose 1 mg per pig, plasma, 0 to last measurement point, mean ± SD, n = 5): 25 ± 6.93 ng·h/mL
- Cmax ([1]; female, Danish Landrance × Yorkshire × Duroc, im, single i.m. dose 1 mg per pig, plasma, UPLC-MS/MS, non-compartmental, mean ± SD, n = 5): 11 ± 2.04 ng/mL
- AUC(0-inf) [1, 6]: 25.8 ± 6.75 ng·h/mL
- CL/F [1, 6]: 686 mL/min
- Vd/F [1, 6]: 80.5 ± 43.9 L
- half-life ([1]; female, Danish Landrance × Yorkshire × Duroc, im, single i.m. dose 1 mg per pig, plasma, non-compartmental, mean ± SD, n = 5, read-out: t1/2 (elimination half-time) (converted)): 1.29 ± 0.4 h
- MRT ([1]; female, Danish Landrance × Yorkshire × Duroc, plasma, im, single i.m. dose 1 mg per pig, plasma, mean ± SD, n = 5, read-out: MRT0-t): 2.13 ± 0.27 h
- MRT ([1]; female, Danish Landrance × Yorkshire × Duroc, plasma, im, single i.m. dose 1 mg per pig, plasma, mean ± SD, n = 5, read-out: MRT0-∞): 2.35 ± 0.23 h
- Cmax/D ([1]; single i.m. dose 1 mg per pig (about 0.018 mg/kg), rate of Cmax to dosage, mean ± SD, n = 5): 610.19 ± 79.93 ng/mL/mg/kg
- Adverse effects ([1]; single i.m. dose 1 mg per pig, n = 5): No adverse effects were observed
- AUMClast [1, 7]: 59.59 ± 16.54 h × h × ng/mL
- ka (absorption rate constant) [1, 7]: 0.48 ± 0.07 h⁻¹
- MRT ([2]; female, Holstein, plasma, im, single i.m. dose 3 mg per cow, plasma, mean ± SD, n = 5, read-out: MRT0-t): 1.85 ± 0.56 h
- MRT ([2]; female, Holstein, plasma, im, single i.m. dose 3 mg per cow, plasma, mean ± SD, n = 5, read-out: MRT0-∞): 2.16 ± 0.7 h
- tmax ([2]; female, Holstein, im, single i.m. dose 3 mg per cow (about 0.0064 mg/kg), plasma, UPLC-MS/MS, non-compartmental, mean ± SD, n = 5): 1.05 ± 0.27 h
- AUC(0-t) ([2]; female, Holstein, im, single i.m. dose 3 mg per cow, plasma, 0 to last measurement point, mean ± SD, n = 5): 5.63 ± 1.86 ng·h/mL
- Cmax ([2]; female, Holstein, im, single i.m. dose 3 mg per cow, plasma, UPLC-MS/MS, non-compartmental, mean ± SD, n = 5): 2.68 ± 0.36 ng/mL
- AUC(0-inf) [2, 8]: 5.99 ± 2.01 ng·h/mL
- CL/F [2, 8]: 9080 mL/min
- Vd/F [2, 8]: 840 ± 175 L
- half-life ([2]; female, Holstein, im, single i.m. dose 3 mg per cow, plasma, non-compartmental, mean ± SD, n = 5, read-out: t1/2 (elimination half-time) (converted)): 1.13 ± 0.3 h
- Cmax/D ([2]; single i.m. dose 3 mg per cow (about 0.0064 mg/kg), rate of Cmax to dosage, mean ± SD, n = 5): 420.35 ± 58.40 ng/mL/mg/kg
- Adverse effects ([2]; single i.m. dose 3 mg per cow, n = 5): No adverse effects were observed
- AUMClast [2, 9]: 11.23 ± 6.89 h × h × ng/mL
- ka (absorption rate constant) [2, 9]: 0.58 ± 0.17 h⁻¹
- clearance ([3]; 5 mg per dog i.v. injection ref 18): 1.7 ± 0.10 mL/min/kg
- tmax ([3]; s.c. at a dose of 3.3 mg ref 18): 4 h
- Vd ([3]; single dose 5 mg i.v. ref 18): 0.0501 ± 0.0024 L/kg
- t1/2 ([3]; single dose of 5 mg i.v. injection ref 18): 0.94 ± 0.0163 h
- clearance ([4]; 1 mg per pig i.v. injection, no reference given): 2.0 ± 0.4 mL/min/kg
- Vd ([4]; single dose 1 mg i.v. ref 14): 0.304 ± 0.112 L/kg
- t1/2 ([4]; single dose of 1 mg i.v. injection ref 14): 1.72 ± 0.333 h
- Degradation by pyroglutamyl-amino-peptidase [5]: rapidly degraded
